Test system: SEM cells
Assay: cell viability relative to DMSO control; higher = less cytotoxic
Conditions: 48 h
Method in brief: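 NOMO1, SEM and P12-Ichikawa leukemia cells spent at least four passages adapting to each medium before use. They were seeded at 500 cells/well (NOMO1, SEM) or 1000 cells/well (P12-Ichikawa) in 5 μl in 1536-well plates and pin-dosed with library compounds in DMSO at 11 threefold steps from 47 μM down to 0.79 nM. After 48 h at 37°C, CellTiter-Glo One luminescence was read. Viability is reported as a percentage of the DMSO wells on each plate, with cell-free wells as background.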

[1] = HPLM + 10% dialyzed FBS, 0.000781 µM
[2] = HPLM + 10% dialyzed FBS, 0.00234 µM
[3] = HPLM + 10% dialyzed FBS, 0.00702 µM
[4] = HPLM + 10% dialyzed FBS, 0.0211 µM
[5] = HPLM + 10% dialyzed FBS, 0.0632 µM
[6] = HPLM + 10% dialyzed FBS, 0.19 µM
[7] = HPLM + 10% dialyzed FBS, 0.569 µM
[8] = HPLM + 10% dialyzed FBS, 1.71 µM
[9] = HPLM + 10% dialyzed FBS, 5.12 µM
[10] = HPLM + 10% dialyzed FBS, 15.4 µM
[11] = HPLM + 10% dialyzed FBS, 46.1 µM
[12] = RPMI 5 mM glucose + 10% FBS, 0.000781 µM
[13] = RPMI 5 mM glucose + 10% FBS, 0.00234 µM
[14] = RPMI 5 mM glucose + 10% FBS, 0.00702 µM
[15] = RPMI 5 mM glucose + 10% FBS, 0.0211 µM
[16] = RPMI 5 mM glucose + 10% FBS, 0.0632 µM
[17] = RPMI 5 mM glucose + 10% FBS, 0.19 µM
[18] = RPMI 5 mM glucose + 10% FBS, 0.569 µM
[19] = RPMI 5 mM glucose + 10% FBS, 1.71 µM
[20] = RPMI 5 mM glucose + 10% FBS, 5.12 µM
[21] = RPMI 5 mM glucose + 10% FBS, 15.4 µM
[22] = RPMI 5 mM glucose + 10% FBS, 46.1 µM
[23] = RPMI 5 mM glucose + 10% dialyzed FBS, 0.000781 µM
[24] = RPMI 5 mM glucose + 10% dialyzed FBS, 0.00234 µM
[25] = RPMI 5 mM glucose + 10% dialyzed FBS, 0.00702 µM
[26] = RPMI 5 mM glucose + 10% dialyzed FBS, 0.0211 µM
[27] = RPMI 5 mM glucose + 10% dialyzed FBS, 0.0632 µM
[28] = RPMI 5 mM glucose + 10% dialyzed FBS, 0.19 µM
[29] = RPMI 5 mM glucose + 10% dialyzed FBS, 0.569 µM
[30] = RPMI 5 mM glucose + 10% dialyzed FBS, 1.71 µM
[31] = RPMI 5 mM glucose + 10% dialyzed FBS, 5.12 µM
[32] = RPMI 5 mM glucose + 10% dialyzed FBS, 15.4 µM
[33] = RPMI 5 mM glucose + 10% dialyzed FBS, 46.1 µM

SMILES	cell viability [1]	cell viability [2]	cell viability [3]	cell viability [4]	cell viability [5]	cell viability [6]	cell viability [7]	cell viability [8]	cell viability [9]	cell viability [10]	cell viability [11]	cell viability [12]	cell viability [13]	cell viability [14]	cell viability [15]	cell viability [16]	cell viability [17]	cell viability [18]	cell viability [19]	cell viability [20]	cell viability [21]	cell viability [22]	cell viability [23]	cell viability [24]	cell viability [25]	cell viability [26]	cell viability [27]	cell viability [28]	cell viability [29]	cell viability [30]	cell viability [31]	cell viability [32]	cell viability [33]
CN1CCN(CC1)C2=CC3=C([NH]C(=N3)C/4=C(\N)C5=C(F)C=CC=C5NC4=O)C=C2	39.9%	48.9%	44.5%	45.4%	31%	46.1%	36.6%	26.5%	21.4%	17.3%	5.83%	52.6%	65.8%	50%	54.7%	37.4%	44.5%	36.2%	25.6%	19.5%	9.89%	8.79%	40.7%	58.3%	43.3%	41.6%	31.2%	34.6%	32.7%	27.2%	19.8%	10.5%	5.75%
c1coc(CNc2ncnc3nc[nH]c23)c1	112%	101%	112%	103%	116%	118%	123%	110%	130%	127%	103%	110%	120%	116%	121%	124%	110%	119%	120%	143%	119%	105%	105%	115%	106%	114%	111%	114%	97.4%	109%	115%	119%	96.1%
CCn1c(C(=O)N(C2CC2)C2CC2)cc2c3c(ncn3C)c(Nc3cc(C)n(C)n3)nc21	75.8%	100%	113%	99.9%	107%	101%	99.9%	106%	94.3%	78.8%	55.3%	71.3%	114%	119%	121%	119%	123%	110%	106%	93%	91.3%	26.7%	75.7%	109%	117%	107%	104%	100%	102%	112%	82.8%	66.8%	34.1%
CCOC(=O)c1c(CSc2ccccc2)n(C)c2cc(Br)c(O)c(CN(C)C)c12	89.7%	94.8%	96.4%	109%	96.2%	102%	97.3%	103%	82.5%	108%	88.6%	107%	114%	109%	103%	104%	128%	125%	129%	103%	101%	63.7%	94.9%	114%	101%	104%	111%	97.5%	94.7%	109%	113%	109%	70.5%
NC(=O)N1CCC(CC(=O)N2CCC([C@H]3c4ncc(Br)cc4CCc4cc(Cl)cc(Br)c43)CC2)CC1	106%	99.3%	114%	124%	111%	118%	72.5%	57.1%	48.6%	45.7%	34.8%	114%	122%	120%	129%	111%	122%	82.4%	66.3%	46%	44.4%	24.1%	98.1%	109%	110%	101%	97.2%	114%	95.9%	84.4%	56.1%	58%	17.8%
OC[C@H]1OC(O)C[C@@H](O)[C@@H]1O (some centres undefined)	83.6%	32.6%	104%	99.5%	92.4%	96%	92.8%	101%	101%	97.8%	97.9%	95.6%	26.8%	118%	116%	114%	115%	118%	125%	109%	136%	127%	97.6%	37.5%	116%	104%	118%	113%	120%	120%	109%	116%	119%
N#CC1(c2cccc(C(=O)Nc3cc(Oc4ccc5nc(NC(=O)C6CC6)sc5n4)ccc3F)c2Cl)CC1	93.5%	95.8%	106%	93.9%	117%	118%	102%	94.9%	82.1%	46.7%	30.6%	75.1%	89%	90.5%	74.5%	84.1%	68.2%	74.5%	59.1%	39.4%	17.4%	17.6%	101%	106%	106%	105%	105%	102%	108%	83.2%	69.6%	37.1%	26.3%
CC(=O)OCC(=O)[C@@]1(O)CC[C@H]2[C@@H]3CCC/4=C/C(=O)/C=C\[C@]4(C)[C@H]3[C@@H](O)C[C@]12C	117%	106%	104%	112%	103%	78.8%	69.3%	52.7%	48.2%	88%	90.5%	121%	124%	130%	124%	122%	99.3%	110%	81.4%	60.4%	128%	121%	–	–	–	–	–	–	–	–	–	–	–
COCC(=O)NC/C=C/c1ccc2ncnc(Nc3ccc(Oc4ccc(C)nc4)c(C)c3)c2c1	87.2%	87.7%	87.1%	96.4%	92.4%	92.3%	108%	90.3%	82.2%	89.1%	66.5%	102%	105%	124%	95.2%	105%	98.8%	103%	97.8%	93%	99.9%	34.6%	78.8%	82.9%	93.6%	95.6%	101%	86.8%	94.2%	91%	71.6%	88%	49%
CN(C)c1ccc(-c2nc3c(N4CCN(CC(=O)Nc5nccs5)CC4)c(Cl)cnc3[nH]2)cc1	129%	102%	115%	112%	115%	112%	109%	86.9%	105%	80%	58.8%	103%	118%	130%	107%	106%	124%	107%	87.7%	92.5%	70.3%	51.2%	105%	121%	120%	116%	107%	111%	102%	89.7%	97.9%	71.1%	49.6%
CC(=O)N(O)CCCCCNC(=O)CCC(=O)N(O)CCCCCNC(=O)CCC(=O)N(O)CCCCCN.C[S+](=O)([O-])O	74.3%	86.8%	77.7%	26.2%	25.3%	18.8%	22.5%	18.2%	23.9%	23.2%	23.2%	96.8%	54.4%	30.4%	18.5%	20.6%	20.9%	20.6%	14.4%	18.5%	15.9%	16.3%	81%	82.9%	94.4%	30.2%	25.4%	19.3%	18.7%	20.2%	19.3%	23.6%	23.7%
CCC(=O)O[C@@]1(CC[C@H]2[C@@H]3CCC/4=C/C(=O)CC[C@]4(C)[C@H]3CC[C@]12C)C(=O)CO	95.3%	100%	101%	110%	109%	98.8%	86.7%	57.4%	46.1%	27.3%	23.7%	63.3%	83.6%	86%	84%	84.8%	76.1%	51%	35.3%	24.3%	14.1%	12.7%	95.1%	103%	99.9%	88.5%	98%	91.7%	79.7%	47.2%	27.6%	19.5%	13.8%
CC[C@H](CO)Nc1nc(NCc2ccccc2)c2ncn(C(C)C)c2n1	89.9%	96.2%	95.3%	86.9%	93.7%	96.8%	83.7%	99.8%	94%	98.1%	58.7%	114%	97.4%	128%	111%	112%	126%	126%	99.9%	108%	120%	63.6%	102%	102%	88.6%	88.2%	90.8%	95.6%	98%	97%	102%	88.1%	35.3%
O=C(Nc1ccccc1)Nc1ccc(-c2ccc(C(=O)[C@@H]3CCC[C@H]3C(=O)O)cc2)cc1	101%	111%	101%	110%	110%	103%	99.8%	107%	108%	106%	105%	102%	102%	111%	108%	109%	99.5%	114%	97.6%	94.6%	91.2%	114%	109%	103%	107%	124%	104%	99.7%	101%	95.4%	113%	107%	123%
C[S+](=O)([O-])N1CCN(Cc2cc3nc(-c4cccc5[nH]ncc45)nc(N4CCOCC4)c3s2)CC1	97.5%	121%	116%	111%	103%	92.4%	82%	74.9%	56.9%	31.7%	12.9%	106%	121%	129%	105%	112%	108%	89%	67.4%	46.6%	23.2%	8.22%	115%	122%	129%	127%	110%	106%	78.6%	78%	57%	42.6%	16%

— the supplement of paper PMC11451515
